Among the data in ChEMBL document CHEMBL4418262, “Heterocyclic compounds for the inhibition of pask” (2016) are IC50 values, retold here.

As usually defined, the IC50 is the point on the concentration scale where inhibition reaches its midpoint.

Some results are limits rather than exact numbers.

The test has as its target PAS domain-containing serine/threonine-protein kinase (Homo sapiens, UniProt Q96RG2). Kind of test: Inhibition of GST-tagged human recombinant PASK expressed in Baculovirus based system using Ulight-peptide substrate incubated for 2 hrs by TR-FRET assay. For orientation: In TR-FRET formats the signal depends on donor and acceptor labels being close together.

Sequence of PAS domain-containing serine/threonine-protein kinase (Q96RG2 whole entry, the tested form may be a part): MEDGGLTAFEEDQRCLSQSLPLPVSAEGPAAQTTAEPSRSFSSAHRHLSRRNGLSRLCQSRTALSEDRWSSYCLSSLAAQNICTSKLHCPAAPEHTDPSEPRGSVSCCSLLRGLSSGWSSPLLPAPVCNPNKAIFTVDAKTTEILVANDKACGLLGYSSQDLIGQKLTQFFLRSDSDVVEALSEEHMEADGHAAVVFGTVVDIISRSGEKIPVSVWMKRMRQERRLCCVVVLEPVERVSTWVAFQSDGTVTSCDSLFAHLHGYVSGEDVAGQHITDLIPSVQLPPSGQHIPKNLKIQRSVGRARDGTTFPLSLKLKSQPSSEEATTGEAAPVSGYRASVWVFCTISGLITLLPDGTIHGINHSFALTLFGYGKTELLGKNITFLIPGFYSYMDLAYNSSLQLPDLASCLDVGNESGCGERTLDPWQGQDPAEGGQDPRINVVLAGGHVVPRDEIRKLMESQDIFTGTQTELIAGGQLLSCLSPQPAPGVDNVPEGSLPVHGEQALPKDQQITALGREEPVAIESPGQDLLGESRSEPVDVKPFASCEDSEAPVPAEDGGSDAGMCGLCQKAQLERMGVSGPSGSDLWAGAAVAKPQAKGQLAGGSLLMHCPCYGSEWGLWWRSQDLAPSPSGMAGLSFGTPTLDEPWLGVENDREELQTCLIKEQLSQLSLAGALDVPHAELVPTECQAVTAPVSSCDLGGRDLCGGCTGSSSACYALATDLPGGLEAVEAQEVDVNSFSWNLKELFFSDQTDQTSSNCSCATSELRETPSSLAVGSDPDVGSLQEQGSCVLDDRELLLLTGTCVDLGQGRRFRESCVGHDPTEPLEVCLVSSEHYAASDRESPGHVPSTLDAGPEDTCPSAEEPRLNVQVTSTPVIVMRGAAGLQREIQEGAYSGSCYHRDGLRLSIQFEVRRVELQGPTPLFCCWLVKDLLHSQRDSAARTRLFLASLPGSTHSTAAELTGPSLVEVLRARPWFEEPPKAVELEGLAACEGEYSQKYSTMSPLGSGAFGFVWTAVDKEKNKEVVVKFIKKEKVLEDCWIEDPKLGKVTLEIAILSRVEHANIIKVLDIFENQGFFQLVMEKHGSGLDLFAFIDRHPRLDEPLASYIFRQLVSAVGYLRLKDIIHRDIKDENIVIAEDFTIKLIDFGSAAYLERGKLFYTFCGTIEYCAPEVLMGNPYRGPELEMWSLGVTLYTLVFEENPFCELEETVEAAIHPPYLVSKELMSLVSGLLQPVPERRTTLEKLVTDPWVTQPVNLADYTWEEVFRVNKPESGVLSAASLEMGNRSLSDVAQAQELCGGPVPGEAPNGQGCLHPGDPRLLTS

With `CN(c1nc2cc(C(=O)O)ccc2nc1-c1ccc(F)cc1)C1CCC(O)CC1` (centres undefined), the IC50 is ≤ 10 µM. Consider `C[C@H]1CCCN1c1nc2cc(C(=O)O)ccc2nc1-c1coc2ccc(C(F)(F)F)cc12`, for which the IC50 was ≤ 10 µM. To `CC(C)N(C)c1nc2cc(C(=O)O)ccc2nc1-c1coc2ccc(C(F)(F)F)cc12` belongs ≤ 10 µM. `C[C@H]1CCCCN1c1nc2cc(C(=O)O)ccc2nc1-c1cc2cc(F)ccc2o1`: the half-maximal inhibitory concentration (IC50) was ≤ 10 µM.
